Source: US20170107207A1, “AMINOPYRAZOLONE DERIVATIVE” (DAIICHI SANKYO COMPANY, LIMITED, priority 2014, published 2017)
Counter-ions that a name gives are not always drawn.

Legend:
[1] = tested on: human lymphoma cell line RAMOS cells; assay: Cell growth inhibition test using RAMOS cell, ATP assay (CellTiter-Glo); type: cell-based; conditions: Homo sapiens, Ramos, 72 h, cultured 3 days, 50% growth inhibition concentration
Description: A cell growth inhibition test was carried out by treating human lymphoma cell line RAMOS cells with a test compound for a given period and then counting the number of viable cells by MTT assay or CellTiter-Glo Luminescent Cell Viability Assay (manufactured by Promega Corp.; hereinafter, referred to as ATP assay).
RAMOS cells were inoculated at 4000 cells/40 μL/well to a 384-well plate containing the compound prepared in advance at predetermined concentrations. The cells thus inoculated were cultured at 37° C. for 3 days under 5% CO2. In order to measure a cell survival rate, CellTiter-Glo Reagent was added in an amount corresponding to 1/4 of the amount of the culture solution at the day of cell inoculation and at the final culture date and stirred at room temperature for 2 minutes. Then, luminescence intensity was measured using a plate reader. The cell survival rate was calculated according to the expression given below.
The number of viable cells and luminescence intensity have been confirmed to correlate with each other. Therefore, the rate of cell growth was calculated according to the following expression: Rate of cell growth (T/C %) of a test compound-supplemented well=100×[(B−C)/(A−C)] wherein A represents the luminescence intensity (final culture date) of a test compound-free well; B represents the luminescence intensity (final culture date) of a test compound-containing well; and C represents the luminescence intensity (day of cell inoculation) of a well at the start of contact of the cells with the test compound.
T/C % at each concentration of the test compound was determined. The concentration at which the test compound offered 50% growth rate was calculated as a GI50 value from the growth rates at two points interpolating 50% and the concentrations, and is shown in Table 56.

TIP48/TIP49 complex = biological target: T1, TIP48/TIP49 complex (Homo sapiens, UniProt Q9Y230+Q9Y265); assay: ATPase assay of TIP48/TIP49 complex (ADP-Glo); type: biochemical; conditions: concentration at which the ATPase activity was inhibited by 50%
T1 construct: made in house; host or cells: E. coli
Excerpt: The ATPase activity of the TIP48/TIP49 complex can be measured by use of an ATPase assay described below in Test Examples 1 and 2. The ATPase activity of the TIP48/TIP49 complex can be measured, as described below in the Test Examples, for example, by using recombinant human TIP48 and TIP49 proteins (hereinafter, referred to as rTIP48 and rTIP49) and ATP in the presence or absence of a test compound and measuring the amount of ADP formed through hydrolysis by the ATPase activity of the TIP48/TIP49 complex, using ADP-Glo. Alternatively, the ATPase activity of the TIP48/TIP49 complex can be measured by a method described in, for example, J. Mol. Biol. 366, 172-179 (2007).
An ATPase assay of a TIP48/TIP49 complex was conducted using rTIP48 and rTIP49. Human TIP48 and TIP49 DNAs were purchased from Open Biosystems. Human TIP48 and TIP49 cDNAs cloned by PCR using the purchased DNAs were each integrated into plasmids for expression in E. coli and expressed in E. coli to obtain rTIP48 and rTIP49.
A test compound was dissolved at 10 mM using DMSO. The solution was diluted to 10 concentrations as 4-fold serial dilutions from 10 mM using DMSO.
A 2×assay buffer (100 mM Tris-HCl, pH 7.5, 100 mM NaCl, 40 mM MgCl2, 2 mM DTT, 20 μM ATP, and 0.2 mg/mL BSA) was dispensed at 24.5 μL/well to a 384-well assay plate.
Test compound solutions were dispensed thereto at 1 μL/well. Subsequently, the solution in each well was mixed using a plate mixer.
rTIP48 and rTIP49 were diluted to a concentration of 50 μg/mL using sterilized water. The diluted solution was dispensed at 24.5 μL/well to the 384-well assay plate. Subsequently, the solution in each well was mixed using a plate mixer (final concentration: 24.5 μg/mL) (concentration of each test compound solution: 200 μM, 50 μM, 12.5 μM, 3.12 μM, 0.78 μM, 0.20 μM, 0.049 μM, 0.012 μM, 0.003 μM, and 0.0007 μM; DMSO concentration: 2%).
After the mixing using the plate mixer, the assay plate was left standing at room temperature for 1.5 hours.
5 μL of the solution in each well was transferred to a white assay plate, and ADP-Glo Reagent from ADP-Glo Kinase Assay (Promega Corp., catalog No. V9101) was dispensed thereto at 5 μL/well. After completion of the reaction, the plate was left standing at room temperature for 40 minutes. Kinase Detection Reagent was further dispensed thereto at 5 μL/well, and the plate was left standing at room temperature for 30 minutes. Then, luminescence intensity was measured using a plate reader.
The ATPase inhibitory activity was calculated according to the expression given below.
The luminescence intensity of a well supplemented with the test compound and the TIP48/TIP49 complex was defined as A. The luminescence intensity of a well supplemented with only the TIP48/TIP49 complex was defined as B. The luminescence intensity of a well supplemented with neither the test compound nor the TIP48/TIP49 complex was defined as C. The ratio between the test compound-supplemented group and the test compound-nonsupplemented group (T/C value) was determined according to the following calculation expression:
The dose-response curve was calculated using GraphPad Prism 4 from the concentration of each of the serially diluted test compounds and the ATPase inhibitory activity (%) at this concentration.

T1 sequence (Q9Y230 whole entry): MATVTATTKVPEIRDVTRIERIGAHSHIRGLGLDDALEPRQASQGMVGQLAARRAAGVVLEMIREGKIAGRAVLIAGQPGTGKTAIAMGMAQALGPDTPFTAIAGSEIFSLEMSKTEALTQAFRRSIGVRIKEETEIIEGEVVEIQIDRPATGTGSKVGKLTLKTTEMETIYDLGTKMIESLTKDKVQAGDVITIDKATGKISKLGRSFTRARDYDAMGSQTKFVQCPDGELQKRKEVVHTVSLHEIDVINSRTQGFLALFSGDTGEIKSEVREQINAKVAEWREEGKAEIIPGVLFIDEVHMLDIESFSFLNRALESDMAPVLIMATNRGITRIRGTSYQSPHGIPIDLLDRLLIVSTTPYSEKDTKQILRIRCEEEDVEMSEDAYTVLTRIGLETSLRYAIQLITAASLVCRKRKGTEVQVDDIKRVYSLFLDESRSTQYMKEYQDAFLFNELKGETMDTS
T1 sequence (Q9Y265 whole entry): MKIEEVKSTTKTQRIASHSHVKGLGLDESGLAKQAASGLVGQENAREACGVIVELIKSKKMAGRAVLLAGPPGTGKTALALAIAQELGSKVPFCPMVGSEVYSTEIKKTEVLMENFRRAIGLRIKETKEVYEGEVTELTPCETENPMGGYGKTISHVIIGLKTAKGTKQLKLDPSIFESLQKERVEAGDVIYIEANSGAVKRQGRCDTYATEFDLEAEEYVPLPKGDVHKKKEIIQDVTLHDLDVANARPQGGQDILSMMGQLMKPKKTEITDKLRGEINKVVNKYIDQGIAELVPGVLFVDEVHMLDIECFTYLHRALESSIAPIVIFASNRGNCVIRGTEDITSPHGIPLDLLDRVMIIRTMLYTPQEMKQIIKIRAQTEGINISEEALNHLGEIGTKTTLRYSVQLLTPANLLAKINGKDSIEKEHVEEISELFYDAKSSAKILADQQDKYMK

Structure (SMILES) | GI50 [1] [nM] | IC50 (TIP48/TIP49 complex) [nM]
Cc1cc2cc(Cl)cc(C(=O)NCC(C)(C)CC(=O)Nc3c(C[C@H](C)N(C)C)n(C)n(-c4ccccc4)c3=O)c2o1 [Example 54, 5-Chloro-N-[4-({5-[(2S)-2-(dimethylamino)propyl]-1-methyl-3-oxo-2-phenyl-2,3-dihydro-1H-pyrazol-4-yl}amino)-2,2-dimethyl-4-oxobutyl]-2-methylbenzofuran-7-carboxamide] | 140 | 94
Cc1cc2cc(Cl)cc(C(=O)NCC(C)(C)CC(=O)Nc3c(CC(C)(C)N)n(C)n(-c4ccccc4)c3=O)c2o1 [Example 58, N-(4-{[5-(2-amino-2-methylpropyl)-1-methyl-3-oxo-2-phenyl-2,3-dihyro-1H-pyrazol-4-yl]amino}-2,2-dimethyl-4-oxobutyl)-5-chloro-2-methylbenzofuran-7-carboxamide] | 110 | 58
CCOc1ccc(Cl)cc1C(=O)NCC(C)(C)CC(=O)Nc1c(CC(C)(C)NC)n(C)n(-c2ccccc2)c1=O [Example 59, 5-Chloro-N-[2,2-dimethyl-4-({1-methyl-5-[2-methyl-2-(methylamino)propyl]-3-oxo-2-phenyl-2,3-dihydro-1H-pyrazol-4-yl}amino)-4-oxobutyl]-2-ethoxybenzamide] | 150 | 34
CNC(C)(C)Cc1c(NC(=O)CC(C)(C)CNC(=O)c2cc(Cl)cc3cc(C)oc23)c(=O)n(-c2ccccc2)n1C [Example 61, 5-Chloro-N-[2,2-dimethyl-4-({1-methyl-5-[2-methyl-2-(methylamino)propyl]-3-oxo-2-phenyl-2,3-dihydro-1H-pyrazol-4-yl}amino)-4-oxobutyl]-2-methylbenzofuran-7-carboxamide] | 390 | 52
CCOc1ccc(Cl)cc1C(=O)NCC(CF)(CF)CC(=O)Nc1c(CCN(C)C)n(C)n(-c2ccccc2)c1=O [Example 62, 5-Chloro-N-[4-({5-[2-(dimethylamino)ethyl]-1-methyl-3-oxo-2-phenylpyrazolo-4-yl}amino)-2,2-bis(fluoromethyl)-4-oxobutyl]-2-ethoxybenzamide] | 500 | 150
CCOc1cc(F)c(Cl)cc1C(=O)NCC(C)(C)CC(=O)Nc1c(CCCN(C)C)n(C)n(-c2ccccc2)c1=O [Example 64, 5-Chloro-N-[4-({5-[3-(dimethylamino)propyl]-1-methyl-3-oxo-2-phenyl-2,3-dihydro-1H-pyrazol-4-yl}amino)-2,2-dimethyl-4-oxobutyl]-2-ethoxy-4-fluorobenzamide monohydrochloride] | 190 | 99
Cc1cc2cc(Cl)cc(C(=O)NCC(C)(C)CC(=O)Nc3c(CCCN(C)C)n(C)n(-c4ccccc4)c3=O)c2o1 [Example 65, 5-Chloro-N-[4-({5-[3-(dimethylamino)propyl]-1-methyl-3-oxo-2-phenyl-2,3-dihydro-1H-pyrazol-4-yl}amino)-2,2-dimethyl-4-oxobutyl]-2-methylbenzofuran-7-carboxamide] | 200 | 44
CCOc1ccc(Cl)cc1C(=O)NCC(C)(C)CC(=O)Nc1c(C(C)CN(C)C)n(C)n(-c2ccccc2)c1=O (stereo not drawn) [Example 66, 5-Chloro-N-[4-({5-[2-(dimethylamino)-1-methylethyl]-1-methyl-3-oxo-2-phenyl-2,3-dihydro-1H-pyrazol-4-yl}amino)-2,2-dimethyl-4-oxobutyl]-2-ethoxybenzamide] | 160 | 58
CCOc1ccc(Cl)cc1C(=O)NCC(C)(C)CC(=O)Nc1c([C@@H](C)CN(C)C)n(C)n(-c2ccccc2)c1=O [Example 67, 5-Chloro-N-[4-({5-[(1S)-2-(dimethylamino)-1-methylethyl]-1-methyl-3-oxo-2-phenyl-2,3-dihydro-1H-pyrazol-4-yl}amino)-2,2-dimethyl-4-oxobutyl]-2-ethoxybenzamide] | 150 | 36
CCOc1cc(F)c(Cl)cc1C(=O)NCC(C)(C)CC(=O)Nc1c(C(C)CN(C)C)n(C)n(-c2ccccc2)c1=O (stereo not drawn) [Example 69, 5-Chloro-N-[4-({5-[2-(dimethylamino)-1-methylethyl]-1-methyl-3-oxo-2-phenyl-2,3-dihydro-1H-pyrazol-4-yl}amino)-2,2-dimethyl-4-oxobutyl]-2-ethoxy-4-fluorobenzamide] | 160 | 65

Other lines, results leading:

GI50 [1] [nM] | IC50 (TIP48/TIP49 complex) [nM] | Structure (SMILES)
240 | 63 | CCOc1ncc(Cl)cc1C(=O)NCC(C)(C)CC(=O)Nc1c(C[C@H](C)N(C)C)n(C)n(-c2ccccc2)c1=O [Example 53, 5-Chloro-N-[4-({5-[(2S)-2-(dimethylamino)propyl]-1-methyl-3-oxo-2-phenyl-2,3-dihydro-1H-pyrazol-4-yl}amino)-2,2-dimethyl-4-oxobutyl]-2-ethoxypyridine-3-carboxamide]
170 | 43 | CCOc1ccc(Cl)cc1C(=O)NCC(C)(C)CC(=O)Nc1c(CC(C)(C)N)n(C)n(-c2ccccc2)c1=O [Example 55, N-(4-{[5-(2-Amino-2-methylpropyl)-1-methyl-3-oxo-2-phenyl-2,3-dihydro-1H-pyrazol-4-yl]amino}-2,2-dimethyl-4-oxobutyl)-5-chloro-2-ethoxybenzamide]
120 | 40 | CCOc1ccc(Cl)cc1C(=O)NCC(C)(C)CC(=O)Nc1c(CC(C)(C)N(C)C)n(C)n(-c2ccccc2)c1=O [Example 56, 5-Chloro-N-[4-({5-[2-(dimethylamino)-2-methylpropyl]-1-methyl-3-oxo-2-phenyl-2,3-dihydro-1H-pyrazol-4-yl}amino)-2,2-dimethyl-4-oxobutyl]-2-ethoxybenzamide]
190 | 70 | CCOc1ncc(Cl)cc1C(=O)NCC(C)(C)CC(=O)Nc1c(CC(C)(C)N(C)C)n(C)n(-c2ccccc2)c1=O [Example 57, 5-Chloro-N-[4-({5-[2-(dimethylamino)-2-methylpropyl]-1-methyl-3-oxo-2-phenyl-2,3-dihydro-1H-pyrazol-4-yl}amino)-2,2-dimethyl-4-oxobutyl]-2-ethoxypyridine-3-carboxamide]
370 | 94 | CCOc1ncc(Br)cc1C(=O)NCC(C)(C)CC(=O)Nc1c(CC(C)(C)NC)n(C)n(-c2ccccc2)c1=O [Example 60, 5-Bromo-N-[2,2-dimethyl-4-({1-methyl-5-[2-methyl-2-(methylamino)propyl]-3-oxo-2-phenyl-2,3-dihydro-1H-pyrazol-4-yl}amino)-4-oxobutyl]-2-ethoxypyridine-3-carboxamide]
